Assay results as given in patent US10493164B2, “Method for preventing and treating adhesions” (Joint Stock Company “Pharmasyntez”, priority 2011, dated 2019).

System: Adhesions in the peritoneal cavity
Test: Adhesions in the peritoneal cavity generated in rats by caecum injury and abdominal wall scarification
Format: in vivo, Wistar rats
Experimental: (§1) Adhesions in the peritoneal cavity were generated in laboratory animals (Wistar rats, 9 months of age, weight of 220-250 g) by injuring the surface of caecum and abdominal wall scarification in the injured area. The study was conducted in compliance with the principles of the European Convention for the Protection of Vertebrate Animals used for Experimental and other Scientific Purposes (Strasbourg, France, 1986), as well as with regulations for humane treatment specified in Guidance for Proper Conduct of Animal Experiments (Attachment to Order No. 755 of the Ministry of Health of the USSR, dated Aug. 12, 1977).
Ten laboratory animals were used in this study. They were divided into 2 groups: the experimental group and the control group.
The calculation was based on the minimum volume of solution required to moisten the peritoneal surface (diZerega G. S. Peritoneum, peritoneal healing and adhesion formation/G. S. diZerega//in: Perotoneal surgery: Ed. G. S. diZerega.—Berlin—Heidelberg—New York: Springer, 2006.—P. 3-38), and the concentration was calculated on the basis of IC50 in the boundary layer of cells. The control animals received a corresponding amount of normal saline solution.
On Day 28 after the abdominal cavity being injured, all animals were autopsied for the examination of abdominal cavity organs and the assessment of the severity and incidence of adhesions, deformation of abdominal cavity organs and distribution of different types of adhesions. The severity of adhesions was scored according to micro- and macroscopic adhesion scales [Micronized purified flavonoid fraction may prevent formation of intraperitoneal adhesions in rats//H. G. Yilmaz, I. H. Tacyildiz, C. Keles et al.//Fertil. Steril.—2005.—Vol. 84, Suppl. 2.—P 1083-1087].
The visceral peritoneum and abdominal organs involved in adhesion formation were examined histologically after fixation in FineFIX solution (Milestone), paraffin filling, staining with hematoxylin-eosin and van Gieson's staining.
as §1, with “surface of the caecum and” for “surface of caecum and”
Thirty laboratory animals were used in this study. They were divided into 2 groups: the experimental group and the control group. […]

Compound	signs of adhesions in histological section of intestinal wall (van Gieson's staining) (Example 5, FIG. 1, abdominal trauma zone and area of postoperative suture)	cases of intestinal wall adhesions (Example 5: 3 ml sterile solution 10 μg/ml injected once before celiorrhaphy, autopsy Day 28)	severity of adhesion formation (score, micro- and macroscopic adhesion scales) (Example 5: 3 ml, 10 μg/ml, once, Day 28, control scored 7, p<0.01)	signs of adhesions in histological section of intestinal wall (van Gieson's staining) (Example 6, FIG. 4, 30 days after modelling)
C[S+]([O-])c1ccc(-c2nc(-c3ccc(F)cc3)c(-c3ccncc3)[nH]2)cc1 (stereo not shown) [SB203580, 4-(4-fluorophenyl)-2-(4-methylsulfinylphenyl)-5-(4-pyridyl)-1H-imidazole]	No signs of adhesions	No cases of intestinal wall adhesions	2	
Conjugates of Polyvinylimidazole and 4-(4-Fluorinephenyl)-2-(4-Methylsulphinylphenyl)-5-(4-Pyridyl)-1H-Imidazole [Example 3]				No signs of adhesions
